From ChEMBL document CHEMBL5543126, “Combinatorial Ubiquitination REal-time PROteolysis (CURE-PROs): A Modular Platform for Generating Reversible, Self-Assembling Bifunctional Targeted Degraders” (J Med Chem, 2024) come the findings set out here.

Molecules are shown by their SMILES.

The term Emax denotes the size of the effect at its maximum, as opposed to the concentration needed.

Assay type in all cases: cell-based
Assay [1] concerns the target T1, von Hippel-Lindau disease tumor suppressor/Bromodomain-containing protein 4 (Homo sapiens, UniProt O60885+P40337). Put plainly: PROTAC activity at VHL/BRD4 in HEK293 cells assessed as induction of BRD4 degradation by measuring maximal level of degradation at 3 uM measured every 15 mins for 24 hrs in presence of VHL based ligand (2S,4R)-1-((S)-2-(2,3-dihydroxybenzamido)-3,3-dimethylbutanoyl)-4-hydroxy-N-(4-(4-methylthiazol-5-yl)benzyl)pyrrolidine-2-carboxamide by HiBiT based Combinatorial Ubiquitination Real-time PROteolysis analysis.

The target in assay [2] is T1, von Hippel-Lindau disease tumor suppressor/Bromodomain-containing protein 4. Put plainly: PROTAC activity at BRD4/VHL in human MCF7 cells assessed as induction of BRD4 degradation by measuring residual activity at 10 uM incubated for 24 hrs in presence of 10 uM VHL based ligand (2S,4R)-1-((S)-2-(2,3-dihydroxybenzamido)-3,3-dimethylbutanoyl)-4-hydroxy-N-(4-(4-methylthiazol-5-yl)benzyl)pyrrolidine-2-carboxamide by Western blot based Combinatorial Ubiquitination Real-time PROteolysis analysis. (A western blot detects proteins with antibodies after separation by electrophoresis.)

Assay [3] has the same target. The assay can be described thus: PROTAC activity at BRD4/VHL in human MCF7 cells assessed as induction of BRD4 degradation by measuring residual activity at 3 uM incubated for 24 hrs in presence of 3 uM VHL based ligand (2S,4R)-1-((S)-2-(2,3-dihydroxybenzamido)-3,3-dimethylbutanoyl)-4-hydroxy-N-(4-(4-methylthiazol-5-yl)benzyl)pyrrolidine-2-carboxamide by Western blot based Combinatorial Ubiquitination Real-time PROteolysis analysis.

For assay [4] the target is unchanged. The assay can be described thus: PROTAC activity at VHL/BRD4 in HEK293 cells assessed as induction of BRD4 degradation by measuring Tmax at 0.3 uM measured every 15 mins for 24 hrs in presence of VHL based ligand (2S,4R)-1-((S)-2-(2,3-dihydroxybenzamido)-3,3-dimethylbutanoyl)-4-hydroxy-N-(4-(4-methylthiazol-5-yl)benzyl)pyrrolidine-2-carboxamide by HiBiT based Combinatorial Ubiquitination Real-time PROteolysis analysis.

Assay [5] shares this target. Put plainly: PROTAC activity at BRD4/VHL in human MCF7 cells assessed as induction of BRD4 degradation by measuring residual activity at 30 nM incubated for 24 hrs in presence of 3 uM VHL based ligand (2S,4R)-1-((S)-2-(2,3-dihydroxybenzamido)-3,3-dimethylbutanoyl)-4-hydroxy-N-(4-(4-methylthiazol-5-yl)benzyl)pyrrolidine-2-carboxamide by Western blot based Combinatorial Ubiquitination Real-time PROteolysis analysis.

Assay [6] shares this target. The assay can be described thus: PROTAC activity at BRD4/VHL in human MCF7 cells assessed as induction of BRD4 degradation by measuring residual activity at 30 nM incubated for 24 hrs in presence of 10 uM VHL based ligand (2S,4R)-1-((S)-2-(2,3-dihydroxybenzamido)-3,3-dimethylbutanoyl)-4-hydroxy-N-(4-(4-methylthiazol-5-yl)benzyl)pyrrolidine-2-carboxamide by Western blot based Combinatorial Ubiquitination Real-time PROteolysis analysis.

Assay [7] shares this target. Put plainly: PROTAC activity at BRD4/VHL in human MCF7 cells assessed as induction of BRD4 degradation by measuring residual activity at 1 uM incubated for 24 hrs in presence of 3 uM VHL based ligand (2S,4R)-1-((S)-2-(2,3-dihydroxybenzamido)-3,3-dimethylbutanoyl)-4-hydroxy-N-(4-(4-methylthiazol-5-yl)benzyl)pyrrolidine-2-carboxamide by Western blot based Combinatorial Ubiquitination Real-time PROteolysis analysis.

Assay [8] has the same target. Put plainly: PROTAC activity at VHL/BRD4 in HEK293 cells assessed as induction of BRD4 degradation by measuring degradation rate at 1 uM measured every 15 mins for 24 hrs in presence of VHL based ligand (2S,4R)-1-((S)-2-(2,3-dihydroxybenzamido)-3,3-dimethylbutanoyl)-4-hydroxy-N-(4-(4-methylthiazol-5-yl)benzyl)pyrrolidine-2-carboxamide by HiBiT based Combinatorial Ubiquitination Real-time PROteolysis analysis. (In general: HiBiT is a short tag that completes a luciferase, so light tracks the accessible tagged protein.)

Assay [9] has the same target. The assay can be described thus: PROTAC activity at BRD4/VHL in human MCF7 cells assessed as induction of BRD4 degradation by measuring residual activity at 3 uM incubated for 24 hrs in presence of 1 uM VHL based ligand (2S,4R)-1-((S)-2-(2,3-dihydroxybenzamido)-3,3-dimethylbutanoyl)-4-hydroxy-N-(4-(4-methylthiazol-5-yl)benzyl)pyrrolidine-2-carboxamide by Western blot based Combinatorial Ubiquitination Real-time PROteolysis analysis.

For assay [10] the target is unchanged. Put plainly: PROTAC activity at VHL/BRD4 in HEK293 cells assessed as induction of BRD4 degradation by measuring Tmax at 10 uM measured every 15 mins for 24 hrs in presence of BRD4 based ligand ((4S)-6-(4-chlorophenyl)-4-(2-(ethylamino)-2-oxoethyl)-1-methyl4Hbenzo[f][1,2,4]triazolo [4,3-a][1,4]diazepin-8-yl)boronic acid by HiBiT based Combinatorial Ubiquitination Real-time PROteolysis analysis.

The target is the same in assay [11]. Put plainly: PROTAC activity at VHL/BRD4 in HEK293 cells assessed as induction of BRD4 degradation by measuring Tmax at 1 uM measured every 15 mins for 24 hrs in presence of BRD4 based ligand ((4S)-6-(4-chlorophenyl)-4-(2-(ethylamino)-2-oxoethyl)-1-methyl4Hbenzo[f][1,2,4]triazolo [4,3-a][1,4]diazepin-8-yl)boronic acid by HiBiT based Combinatorial Ubiquitination Real-time PROteolysis analysis.

The target is the same in assay [12]. The assay can be described thus: PROTAC activity at BRD4/VHL in human MCF7 cells assessed as induction of BRD4 degradation by measuring residual activity at 30 nM incubated for 24 hrs in presence of BRD4 based ligand ((4S)-6-(4-chlorophenyl)-4-(2-(ethylamino)-2-oxoethyl)-1-methyl4Hbenzo[f][1,2,4]triazolo [4,3-a][1,4]diazepin-8-yl)boronic acid by Western blot based Combinatorial Ubiquitination Real-time PROteolysis analysis.

Assay [13] shares this target. Put plainly: PROTAC activity at VHL/BRD4 in HEK293 cells assessed as induction of BRD4 degradation by measuring degradation rate at 10 uM measured every 15 mins for 24 hrs in presence of BRD4 based ligand ((4S)-6-(4-chlorophenyl)-4-(2-(ethylamino)-2-oxoethyl)-1-methyl4Hbenzo[f][1,2,4]triazolo [4,3-a][1,4]diazepin-8-yl)boronic acid by HiBiT based Combinatorial Ubiquitination Real-time PROteolysis analysis.

Assay [14] shares this target. The assay can be described thus: PROTAC activity at BRD4/VHL in human MCF7 cells assessed as induction of BRD4 degradation by measuring residual activity at 300 nM incubated for 24 hrs in presence of 300 nM BRD4 based ligand ((4S)-6-(4-chlorophenyl)-4-(2-(ethylamino)-2-oxoethyl)-1-methyl4Hbenzo[f][1,2,4]triazolo [4,3-a][1,4]diazepin-8-yl)boronic acid by Western blot based Combinatorial Ubiquitination Real-time PROteolysis analysis.

Assay [15] shares this target. Put plainly: PROTAC activity at BRD4/VHL in human MCF7 cells assessed as induction of BRD4 degradation by measuring residual activity at 3 uM incubated for 24 hrs in presence of 1 uM BRD4 based ligand ((4S)-6-(4-chlorophenyl)-4-(2-(ethylamino)-2-oxoethyl)-1-methyl4Hbenzo[f][1,2,4]triazolo [4,3-a][1,4]diazepin-8-yl)boronic acid by Western blot based Combinatorial Ubiquitination Real-time PROteolysis analysis.

T1 sequence (P40337 whole entry, looked up, other chains not shown): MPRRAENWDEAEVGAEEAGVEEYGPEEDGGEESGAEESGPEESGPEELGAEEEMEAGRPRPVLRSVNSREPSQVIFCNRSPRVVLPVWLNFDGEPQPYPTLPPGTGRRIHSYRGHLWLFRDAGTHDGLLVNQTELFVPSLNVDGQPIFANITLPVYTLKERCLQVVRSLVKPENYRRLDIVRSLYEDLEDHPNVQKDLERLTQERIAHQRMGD

In the case of `CCNC(=O)C[C@@H]1N=C(c2ccc(Cl)cc2)c2cc(B(O)O)ccc2-n2c(C)nnc21`, in assay [1], the maximum response (Emax) turned out to be 93%. In addition, the Activity was 6% in assay [2]; 16% in [3]; 90% in assay [5]; 76% in assay [6]; 22% in assay [7]; 0.548 h⁻¹ in [8]. Besides, the Activity in [9] came out at 32%. Also, in [4], the Tmax amounted to 7.75 h.
For `Cc1ncsc1-c1ccc(CNC(=O)[C@@H]2C[C@@H](O)CN2C(=O)[C@@H](NC(=O)c2cccc(O)c2O)C(C)(C)C)cc1`, the figures for the Tmax in assay [10] and in assay [11] were 22.2 h and 19.5 h, respectively. In addition, the Activity in assay [12] came to 91%; in assay [13], 4.18 h⁻¹; in assay [14] it was 68%; in assay [15], 32%.
